This note sets out measurements from US4698327A, “Novel glycopeptide derivatives” (priority 1986, dated 1987).

Converted amounts (≈) assume the structure as drawn.

For test [1], the system named is Streptococcus pneumoniae Park 1. It is filed as cell-based. The following applies: agar dilution. A general note: In agar dilution, organisms are placed on agar that contains the substance at set levels.
In test [2] the test system is Streptococcus sp. group D 2041. Briefly: MIC, standard agar-dilution assay. It is filed as cell-based.
The subject of test [3] is Staphylococcus aureus V41. Briefly: MIC, standard agar-dilution assay. The format is cell-based.
In test [4] the test system is Klebsiella pneumoniae KAE. Briefly: MIC, standard agar-dilution assay. The format is cell-based.
Test [5] deals with Klebsiella pneumoniae X26. Briefly: MIC, standard agar-dilution assay. The format is cell-based.
For test [6], the system named is Haemophilus influenzae 76. Briefly: MIC, standard agar-dilution assay. It is filed as cell-based.
For test [7], the system named is Haemophilus influenzae C.L. Briefly: MIC, standard agar-dilution assay. It is filed as cell-based.
In test [8] the test system is Streptococcus faecium ATCC 9790. Briefly: MIC, standard agar-dilution assay. The format is cell-based.
Test [9] has as its system Staphylococcus aureus NRRL B313. The conditions noted are these: agar dilution.
The test system of test [10] is Klebsiella pneumoniae X68. Briefly: MIC, standard agar-dilution assay. The format is cell-based.
The subject of test [11] is Staphylococcus epidermidis 222. Briefly: MIC, standard agar-dilution assay. The format is cell-based.
A further test deals with Escherichia coli TEM. Briefly: MIC, standard agar-dilution assay. It is filed as cell-based.
Another test relates to Escherichia coli N10. Briefly: MIC, standard agar-dilution assay. It is filed as cell-based.
A further test concerns Staphylococcus aureus. The following applies: Staphylococcus aureus infection in mice; two doses, administered subcutaneously.
Another test relates to Streptococcus pyogenes. The following applies: Streptococcus pyogenes infection in mice; two doses, administered subcutaneously.
In test [12] the test system is Staphylococcus aureus S13E. It is filed as cell-based. The following applies: agar dilution.
The next test deals with Escherichia coli EC14. Briefly: MIC, standard agar-dilution assay. It is filed as cell-based.
The test system of test [13] is Staphylococcus aureus X400. Briefly: MIC, standard agar-dilution assay. It is filed as cell-based.
The test system of test [14] is Streptococcus pyogenes C203. Briefly: MIC, standard agar-dilution assay. It is filed as cell-based.
For test [15], the system named is Staphylococcus epidermidis EPI1. It is filed as cell-based. The conditions noted are these: agar dilution.
Another test deals with Streptococcus pneumoniae. The following applies: Streptococcus pneumoniae infection in mice; two doses, administered subcutaneously.

As to `CNC(CC(C)C)C(=O)NC1C(=O)NC(CC(N)=O)C(=O)NC2C(=O)NC3C(=O)NC(C(=O)NC(C(=O)O)c4cc(O)cc(O)c4-c4cc3ccc4O)C(O)c3ccc(c(Cl)c3)Oc3cc2cc(c3OC2OC(CO)C(O)C(O)C2OC2CC(C)(NCc3ccc(O)cc3)C(O)C(C)O2)Oc2ccc(cc2Cl)C1O` (stereo not drawn) [Example 105, N^van --( -p-hydroxybenzyl)vancomycin], the MIC in [1] was 0.06 µg/mL (≈ 0.0386 µM); in test [2] it was 2 µg/mL (≈ 1.29 µM); in test [3] it was 0.5 µg/mL (≈ 0.321 µM); in [4], above 128 µg/mL; in [5], above 128 µg/mL; in test [6] it was 64 µg/mL (≈ 41.1 µM). The MIC is 64 µg/mL (≈ 41.1 µM) in [7]; 0.5 µg/mL (≈ 0.321 µM) in [8]; 0.5 µg/mL (≈ 0.321 µM) in test [9]; above 128 µg/mL in test [10]; 0.5 µg/mL (≈ 0.321 µM) in [11]; above 128 µg/mL against Escherichia coli TEM. Besides, the MIC with Escherichia coli N10 was above 128 µg/mL; in test [12], 0.5 µg/mL (≈ 0.321 µM); against Escherichia coli EC14, above 128 µg/mL; in [13], 0.5 µg/mL (≈ 0.321 µM); in [14], 0.5 µg/mL (≈ 0.321 µM); in [15], 1 µg/mL (≈ 0.643 µM). The ED50 with Staphylococcus aureus worked out at 0.98 mg/kg/2; in the test on Streptococcus pyogenes it was 1.18 mg/kg/2; in the test with Streptococcus pneumoniae, 1.25 mg/kg/2.
